Data from patent publication US8227510B2, “Combine use of pterostilbene and quercetin for the production of cancer treatment medicaments” (Universitat de Valencia, priority 2004, dated 2012).
Marks after values point to notes of the source that are not given here.

Test: Plasma levels after oral administration in mice
Format: in vivo
Conditions: 20 mg/kg oral
Text: The mice (C57BL/6J, male, 6-8 weeks) were from Charles River Spain (Barcelona). The procedures and animal care were based on institutional standards and complied with national and international laws and policies (Directive 86/609, OJ L 358. 1 of the Council of the European Community, of 12 Dec. 1987) and the “Guide for the Care and Use of Laboratory Animals” of the National Institutes of Health (NIH, USA) (NIH Publication No. 85-23, 1985). All the animals were fed according to concentrated laboratory diets (Letica, Barcelona, Spain) allowing them free access to food and submitting them to a cycle of 12 hours of light/12 hours of darkness with ambient temperature of 22° C. The experiments were begun at 10.00 a.m. to minimize the effects of diurnal variations.
For the pharmacokinetic studies and for the daily treatment, the mice were administered i.v. (via the jugular vein, where a permanent catheter had previously been fixed by surgical methods; i.v. administration was carried out slowly for 1 minute), and orally (via stomach tube), 20 mg/kg of t-PTER (dissolved in ethanol 0.5 ml/kg of animal weight) or QUER (dissolved in dimethylsulfoxide:saline, 1:0.5 0.15 ml/kg of weight). In general, the compositions based on a combination of PTER and QUER can contain, as excipients, those stated previously or any others that are pharmaceutically acceptable. The presentation of said compositions can be, non-limitatively, in the form of solids such as tablets, capsules, pellets, pills, etc. and liquid presentations such as drops, syrups, injectables, etc. Moreover, the active principles (PTER and QUER) of the composition can be in their uncombined forms or in the form of pharmaceutically acceptable salts, including esters. The t-PTER was synthesized in our laboratory following standardized reactions of Wittig and Heck (www.orgsyn.org), whereas the QUER was obtained from Sigma Chemical Co. (San Luis, Mo., USA). The ^3H-t-PTER (2.2 Ci/mmol), labeled in the ortho and para positions of the benzene rings, was prepared in our laboratory according to a method similar to that used for the deuteration of phenols (18). ^14C-QUER (50 mCi/mmol), labeled in position 4 of the carbon ring, was obtained from the NCI Radiochemical Carcinogen Repository of Chemsyn Laboratories (Kansas City, Mo., USA). The radioactivity was measured using a Varisette 2700 TR analyzer from Packard. Blood was collected by means of the catheter in 1-ml syringes that contained heparin sodium (0.05 ml of a 5% solution in […]). The plasma and the erythrocytes were separated as described previously (19).
LC-MS/MS was carried out using a Quattro Micro triple quadrupole mass spectrometer (Micromass, Manchester, UK) equipped with an LC-10Advp pump, an SLC-10Avp control system and an SIL-10Advp autoinjector from Shimadzu. The samples were analyzed by reverse-phase high-performance liquid chromatography using a Prodigy ODS column (100×2 mm) from Phenomenex (Torrance, Calif., USA), with a particle size of 3 μm. In all cases, 40 μl was injected into the column. Column temperature was maintained at 25° C. The following gradient system was used, pumped through the column at 0.2 ml/minute (min/% A/% B/% C) (A, methanol; B, 10% acetonitrile and 90% ammonium formate 10 mM pH 3.75; C, ammonium formate 10 mM pH 3.75): 0/5/5/90, 10/5/5/90, 20/5/90/5, 30/100/0/0, 40/5/5/90. The negative ion tandem mass spectra obtained by electrospray were recorded with the electrospray capillary fixed at […] and at a temperature of the source block of 120° C. Nitrogen was used as nebulizer gas and drying gas, with flows of 300 and 30 l/h, respectively. Argon at 1.5×10^−3 mbar was used as the collision gas for collision-induced dissociation. A test was carried out based on LC-MS/MS with tracking of multiple reactions using the transitions m/z 255-240 for PTER and […] for QUER, which in both cases represent favorable fragmentation routes for these deprotonated molecules. […]

| SMILES | time of peak of plasma levels [min] | Plasma level (total) (5 minutes) [µM] | Plasma level, % free (5 minutes) [% free] | Plasma level (total) (10 minutes) [µM] | Plasma level, % free (10 minutes) | Plasma level (total) (30 minutes) [µM] | Plasma level, % free (30 minutes) | Plasma level (total) (60 minutes) [µM] | Plasma level, % free (60 minutes) | Plasma level (total) (120 minutes) [µM] | Plasma level, % free (120 minutes) | Plasma level (total) (240 minutes) [µM] | Plasma level, % free (240 minutes) | Plasma level (total) (480 minutes) [µM] | Plasma level, % free (480 minutes) | Plasma level (total) (720 minutes) [µM] | Plasma level, % free (720 minutes) | also measured |
| --- | --- | --- | --- | --- | --- | --- | --- | --- | --- | --- | --- | --- | --- | --- | --- | --- | --- | --- |
| COc1cc(/C=C/c2ccc(O)cc2)cc(OC)c1 [PTER, pterostilbene] | 60 | 2.9 ± 0.6 | 67 ± 13 | 6.6 ± 1.8 | 50 ± 10 % free | 11.1 ± 3.0 | 35 ± 5 % free | 18.2 ± 2.7 | 17 ± 6 % free | 13.3 ± 3.4 | 15 ± 3 % free | 10.6 ± 1.2 | 16 ± 4 % free | 7.1 ± 0.8 | 14 ± 4 % free | 1.6 ± 0.5 | 12 ± 2 % free | free PTER as percentage of the total (between 30 and 240 minutes): 15-35%; total concentration of PTER in plasma (between 30 and 240 minutes): > 10 µM |
| O=c1c(O)c(-c2ccc(O)c(O)c2)oc2cc(O)cc(O)c12 [QUER, quercetin] | 10 | 1.6 ± 0.3 | 22 ± 6 | 2.3 ± 0.7 | <0.5* % free | 0.6 ± 0.2 | <0.5* % free | 0.2 ± 0.1 | <0.5* % free | 0.07 ± 0.01 | <0.5* % free | 0.05 ± 0.02 | <0.5* % free | 0.05 ± 0.02 | <0.5* % free | 0.04 ± 0.01 | <0.5* % free | free QUER as percentage of the total (except for the first 5 minutes): 0.5%; levels of total QUER in plasma (first 10 minutes): > 1 µM |
